System: Wnt signaling
Experiment: Wnt-Luc reporter assay for pathway inhibition of Wnt signaling
Format: cell-based, Mouse (TM3 Wnt-Luc cells) or Human (293 Wnt-Luc cells)
Conditions: 24 h, Wnt-Luc reporter cells co-cultured with L-cell Wnt3a cells, luciferase luminescence reduced by 50%
Text: The exemplified compounds of the invention are summarized in Table 1, with IC50 values measured using Wnt-Luc reporter assays.

Structure (SMILES)	IC50 [nM]
Cc1cc(-c2ccc(CC(=O)Nc3ccc(-c4ccccc4)cn3)cn2)ccn1 [compound 51]	< 0.14
Cc1cc(-c2ccc(CC(=O)Nc3ccc(-c4cccc(F)c4)cn3)cc2)ccn1 [compound 56]	< 0.09
Cc1cc(-c2ccc(CC(=O)Nc3ccc(-c4ccccc4)nc3)cc2)ccn1 [compound 36]	< 0.11
Cc1cc(-c2ncc(CC(=O)Nc3ccc(-c4cnccn4)cn3)cc2C)ccn1 [Cpd 86]	0.38
Cc1cc(CC(=O)Nc2ccc(-c3cccc(F)c3)cn2)cnc1-c1ccnnc1 [Cpd 74]	< 0.1
Cc1cc(-c2ccc(CC(=O)Nc3ccc(-c4cccnc4)cc3)cc2)ccn1 [compound 59]	< 0.11
Cc1cc(-c2ccc(CC(=O)Nc3ccc(-c4ccccc4)cn3)cc2)ccn1 [Cpd 26]	< 0.4
